Laboratory results as given in patent publication US20080255150A1, “Novel Compounds” (ASTRAZENECA AB, priority 2005, published 2008).

The compounds below were run against T1, rhCRTh2 (Homo sapiens, UniProt Q9Y5Y4) (assay: Ligand binding assay, [3H]PGD2 SPA on HEK cell membranes). Conditions: [3H]PGD2 displacement; membranes of HEK cells expressing rhCRTh2/Gα16; SPA beads; 2 h at RT; read-out: pIC50 value (converted).
T1 construct: expressed in transfected cells; expression induced with sodium butyrate; membrane preparation
T1 sequence (Q9Y5Y4 1-395): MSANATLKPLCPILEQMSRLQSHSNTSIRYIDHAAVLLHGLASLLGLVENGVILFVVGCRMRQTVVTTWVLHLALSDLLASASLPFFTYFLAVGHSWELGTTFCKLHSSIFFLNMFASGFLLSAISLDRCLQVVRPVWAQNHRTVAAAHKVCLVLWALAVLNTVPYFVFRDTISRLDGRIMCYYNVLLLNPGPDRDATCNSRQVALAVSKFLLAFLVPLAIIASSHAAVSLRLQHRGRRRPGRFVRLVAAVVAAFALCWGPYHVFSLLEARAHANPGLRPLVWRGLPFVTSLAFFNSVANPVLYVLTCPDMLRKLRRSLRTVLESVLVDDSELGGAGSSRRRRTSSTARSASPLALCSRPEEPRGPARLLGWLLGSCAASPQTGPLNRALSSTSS
Method: [^3H]PGD2 was purchased from Perkin Elmer Life Sciences with a specific activity of 100-210 Ci/mmol. All other chemicals were of analytical grade.
HEK cells expressing rhCRTh2/Gα16 were routinely maintained in DMEM containing 10% Foetal Bovine Serum (HyClone), 1 mg/ml geneticin, 2 mM L-glutamine and 1% non-essential amino acids. For the preparation of membranes, the adherent transfected HEK cells were grown to confluence in two layer tissue culture factories (Fisher, catalogue number TKT-170-070E). Maximal levels of receptor expression were induced by addition of […] sodium butyrate for the last 18 h of culture. The adherent cells were washed once with phosphate buffered saline (PBS, 50 ml per cell factory) and detached by the addition of 50 ml per cell factory of ice-cold membrane homogenisation buffer [20 mM HEPES (pH 7.4), 0.1 mM dithiothreitol, 1 mM EDTA, 0.1 mM phenyl methyl sulphonyl fluoride and 100 μg/ml bacitracin]. […] The final pellet was re-suspended in 4 ml of membrane homogenisation buffer per cell factory used and the protein content determined. […]
All assays were performed in Corning clear bottomed, white 96-well NBS plates (Fisher). […] (The optimum coating concentrations were determined for each batch of membranes) The beads were pelleted by centrifugation (800×g for 7 minutes at 4° C.), washed once with assay buffer (50 mM HEPES pH 7.4 containing 5 mM magnesium chloride) and finally re-suspended in assay buffer at a bead concentration of 10 mg/ml.
Each assay contained 20 μl of 6.25 nM [^3H]PGD2, 20 μl membrane saturated SPA beads both in assay buffer and 10 μl of compound solution or 13,14-dihydro-15-keto prostaglandin D2 (DK-PGD2, for determination of non-specific binding, Cayman chemical company). […] The assay plate was incubated at RT for 2 h and counted on a Wallac Microbeta liquid scintillation counter (1 minute per well).

Row | SMILES | IC50
1 | C[C@H]1CN(Cc2cc(Cl)ccc2CCC(=O)O)CCN1C(=O)Cc1ccccc1 [Example 4, 3-(4-chloro-2-{[(3S)-3-methyl-4-(phenylacetyl)piperazin-1-yl]methyl}phenyl)propanoic acid] | 79.4 nM
2 | C[C@H]1CN(Cc2cc(Cl)ccc2CC(=O)O)CCN1S(=O)(=O)c1ccccc1 [Example 9, (4-chloro-2-{[(3S)-3-methyl-4-(phenylsulfonyl)piperazin-1-yl]methyl}phenyl)acetic acid] | 14.1 nM
3 | C[C@H]1CN(Cc2cc(Cl)ccc2CC(=O)O)CCN1C(=O)Cc1ccc(F)cc1F [Example 12, [4-chloro-2-({(3S)-4-[(2,4-difluorophenyl)acetyl]-3-methylpiperazin-1-yl}methyl)phenyl]acetic acid] | 7.94 nM
